Laboratory results published in the supplement of paper PMC10307832.

What was measured:
Test in all cases: relative viability (nuclei count vs DMSO), 5 days (fraction); higher = more cells survive
Hydroxychloroquine = compound: CCN(CCO)CCCC(C)Nc1ccnc2cc(Cl)ccc12 [Hydroxychloroquine]
Method in brief: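 Viability is treated-well nuclei as a fraction of vehicle-well nuclei, reported as the median across plates. Before counting, lung cancer cell lines were kept overnight at 37 °C in 1536-well plates, pinned with five √10-spaced library-drug doses on vehicle-anchored plates, and left 5 days without medium change, then fixed, permeabilised and Hoechst-stained in one step, imaged at 4× and counted by MetaXpress. A plate passed only if control CV was below 25% and at least one doubling occurred.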

[1] = compound: CCN(CCO)CCCC(C)Nc1ccnc2cc(Cl)ccc12 [Hydroxychloroquine] + Cc1cc(Nc2cc(N3CCN(C)CC3)nc(Sc3ccc(NC(=O)C4CC4)cc3)n2)n[nH]1 [Tozasertib] (partner 0.1 µM)
Method in brief: (§1)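 Dosing by pin tool came one day after lung cancer cell lines were seeded in 1536-well plates, using either one drug or a fixed anchor-drug dose plus five library-drug doses (not always all listed) in √10 steps. After 5 days, nuclei were counted on 4× images. Relative viability is treated-well nuclei count divided by vehicle-well nuclei count, and values are medians of duplicate plates.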

[2] = compound: CCN(CCO)CCCC(C)Nc1ccnc2cc(Cl)ccc12 [Hydroxychloroquine] + CC(=O)Nc1cccc(-n2c(=O)n(C3CC3)c(=O)c3c(Nc4ccc(I)cc4F)n(C)c(=O)c(C)c32)c1 [Trametinib] (partner 0.02 µM)
Method in brief: as §1

[3] = compound: CCN(CCO)CCCC(C)Nc1ccnc2cc(Cl)ccc12 [Hydroxychloroquine] + NC(=O)Nc1cc(-c2cccc(F)c2)sc1C(=O)N[C@H]1CCCNC1 [AZD7762] (partner 0.2 µM)
Method in brief: as §1

Row | Cell Line | relative viability (Hydroxychloroquine; 0.5 µM) | relative viability (Hydroxychloroquine; 1.581 µM) | relative viability (Hydroxychloroquine; 5 µM) | relative viability (Hydroxychloroquine; 15.81 µM) | relative viability (Hydroxychloroquine; 50 µM) | relative viability ([1]; first compound 0.5 µM) | relative viability ([1]; first compound 1.581 µM) | relative viability ([1]; first compound 5 µM) | relative viability ([1]; first compound 15.81 µM) | relative viability ([1]; first compound 50 µM) | relative viability ([2]; first compound 0.5 µM) | relative viability ([2]; first compound 1.581 µM) | relative viability ([2]; first compound 5 µM) | relative viability ([2]; first compound 15.81 µM) | relative viability ([2]; first compound 50 µM) | relative viability ([3]; first compound 0.5 µM) | relative viability ([3]; first compound 1.581 µM) | relative viability ([3]; first compound 5 µM) | relative viability ([3]; first compound 15.81 µM) | relative viability ([3]; first compound 50 µM)
1 | H3255 | 0.982 | 0.946 | 0.974 | 0.951 | 0.951 | 0.687 | 0.558 | 0.682 | 0.796 | 0.677 | 0.695 | 0.614 | 0.546 | 0.854 | 0.665 | 0.857 | 0.897 | 0.875 | 0.882 | 0.891
2 | EPLC-272H | 0.963 | 0.843 | 0.98 | 0.94 | 1.08 | 0.262 | 0.152 | 0.26 | 0.257 | 0.287 | 0.272 | 0.311 | 0.273 | 0.271 | 0.298 | 0.168 | 0.207 | 0.214 | 0.232 | 0.193
3 | RERF-LC-KJ | 0.937 | 0.978 | 0.99 | 0.939 | 1.05 | 0.452 | 0.523 | 0.541 | 0.487 | 0.478 | 0.858 | 0.826 | 0.825 | 0.83 | 0.886 | 0.959 | 0.961 | 1.01 | 0.91 | 1.08
4 | NCI-H1793 | 1.03 | 0.791 | 0.916 | 0.866 | 0.998 | 0.521 | 0.266 | 0.268 | 0.366 | 0.308 | 0.405 | 0.463 | 0.475 | 0.416 | 0.344 | 0.46 | 0.615 | 0.452 | 0.402 | 0.404
5 | EKVX | 0.962 | 0.902 | 0.893 | 1.02 | 1.01 | 0.401 | 0.316 | 0.38 | 0.374 | 0.494 | 0.348 | 0.302 | 0.316 | 0.637 | 0.352 | 0.549 | 0.772 | 0.753 | 0.653 | 0.759
6 | ChaGo-K-1 | 0.958 | 1.07 | 0.911 | 1.01 | 1.03 | 0.224 | 0.18 | 0.222 | 0.228 | 0.233 | 0.962 | 0.916 | 0.865 | 0.853 | 0.891 | 0.775 | 0.88 | 0.821 | 0.901 | 0.998
7 | NCI-H23 | 1.04 | 0.809 | 0.961 | 0.915 | 1.01 | 0.56 | 0.337 | 0.41 | 0.65 | 0.424 | 0.387 | 0.387 | 0.364 | 0.36 | 0.327 | 0.263 | 0.355 | 0.21 | 0.271 | 0.248
8 | EMC-BAC-2 | 1.05 | 0.824 | 0.953 | 1.02 | 0.912 | 0.307 | 0.289 | 0.31 | 0.286 | 0.258 | 0.917 | 0.694 | 0.85 | 0.784 | 0.753 | 1.12 | 0.887 | 1.01 | 1.07 | 1.11
9 | LOU-NH91 | 0.96 | 0.794 | 0.944 | 0.95 | 0.901 | 0.651 | 0.6 | 0.687 | 0.692 | 0.723 | 0.795 | 0.69 | 0.799 | 0.828 | 0.848 | 0.762 | 0.646 | 0.776 | 0.744 | 0.828
10 | LU99A | 1.01 | 0.874 | 0.938 | 0.951 | 1.02 | 0.243 | 0.229 | 0.281 | 0.256 | 0.284 | 0.626 | 0.505 | 0.542 | 0.527 | 0.577 | 0.427 | 0.367 | 0.533 | 0.393 | 0.317
11 | NCI-H1395 | 0.887 | 0.847 | 0.81 | 0.83 | 0.854 | 0.74 | 0.717 | 0.73 | 0.824 | 0.723 | 1.09 | 0.972 | 0.862 | 1.02 | 0.949 | 0.393 | 0.465 | 0.419 | 0.375 | 0.426
12 | NCI-H520 | 1.07 | 1.01 | 0.906 | 0.923 | 1.07 | 0.45 | 0.39 | 0.442 | 0.465 | 0.41 | 0.692 | 0.658 | 0.589 | 0.628 | 0.844 |  |  |  |  | 
13 | 201T | 0.965 | 0.974 | 0.968 | 0.981 | 1.04 | 0.941 | 0.954 | 0.951 | 0.966 | 1.08 | 0.727 | 0.777 | 0.728 | 0.733 | 0.724 | 0.571 | 0.809 | 0.759 | 0.59 | 0.658
14 | NCI-H1944 | 0.983 | 0.966 | 0.925 | 0.919 | 0.994 | 0.254 | 0.249 | 0.232 | 0.264 | 0.271 | 0.398 | 0.354 | 0.39 | 0.403 | 0.41 | 0.828 | 0.75 | 0.513 | 0.432 | 0.455
15 | NCI-H2405 | 1.03 | 0.955 | 0.968 | 1 | 1.01 | 0.769 | 0.691 | 0.756 | 0.707 | 0.728 | 0.668 | 0.677 | 0.585 | 0.62 | 0.615 | 0.879 | 0.841 | 0.717 | 0.675 | 0.768
16 | NCI-H1703 | 0.912 | 0.79 | 0.946 | 0.924 | 0.898 |  |  |  |  |  |  |  |  |  |  | 0.196 | 0.159 | 0.135 | 0.114 | 0.137
17 | NCI-H1755 | 1.05 | 0.899 | 0.928 | 0.99 | 0.941 | 0.672 | 0.548 | 0.569 | 0.656 | 0.587 | 0.743 | 0.729 | 0.776 | 0.726 | 0.732 | 0.616 | 0.447 | 0.396 | 0.445 | 0.514
